According to ChEMBL document CHEMBL5505997, “Synthesis and biological evaluation of novel peptidomimetic inhibitors of the coronavirus 3C-like protease” (Eur J Med Chem, 2024):
pEC50: −log10 of the molar value.

Assays:
[1] = test system: Huh-7; assay: Cytotoxicity against human Huh-7 cells assessed as reduction in cell viability; assay type: toxicity, cell-based; conditions: huh-7
[2] = test system: Human coronavirus OC43; assay: Antiviral activity against Human coronavirus OC43 infected in Vero cells assessed as reduction in viral yield preincubated with virus for 1 hr followed by washout and compound treatment and measured after 3 days by qRT-PCR analysis; assay type: functional, organism-based; conditions: Betacoronavirus 1, Vero; for EC90: 72 h, time 3 day
[3] = Cytotoxicity against human PBMC cells assessed as reduction in cell viability; assay type: toxicity, cell-based; conditions: pbmc
[4] = test system: CCRF-CEM; assay: Cytotoxicity against human CEM cells assessed as reduction in cell viability; assay type: toxicity, cell-based; conditions: ccrf-cem
[5] = test system: SARS-CoV-2; assay: Antiviral activity against SARS-CoV-2 infected in Vero cells assessed as reduction in viral yield measured after 48 hrs by qRT-PCR analysis; assay type: functional, organism-based; conditions: Severe acute respiratory syndrome coronavirus 2, Vero; for pEC50: 48 h; for EC90: time 48 hrs
[6] = Cytotoxicity against African green monkey Vero cells assessed as reduction in cell viability; assay type: toxicity, cell-based; conditions: chlorocebus sabaeus, vero
[7] = test system: SARS-CoV-2; assay: Antiviral activity against SARS-CoV-2 infected in human Caco-2 cells assessed as reduction in viral yield measured after 72 hrs by qRT-PCR analysis; assay type: functional, organism-based, Severe acute respiratory syndrome coronavirus 2; conditions: Severe acute respiratory syndrome coronavirus 2, Caco-2; time 72 hrs
[8] = test system: SARS-CoV-2; assay: Antiviral activity against SARS-CoV-2 hCoV-19/USA/GA-EHC-2811C/2021 (Omicron B.1.1.529) infected in human Calu-3 cells assessed as reduction in viral yield measured after 48 hrs by qRT-PCR analysis; assay type: functional, organism-based; conditions: Severe acute respiratory syndrome coronavirus 2, hCoV-19/USA/GA-EHC-2811C/2021 (Omicron B.1.1.529)
[9] = test system: SARS-CoV-2; assay: Antiviral activity against SARS-CoV-2 hCoV-19/USA-WA1/2020 Washington strain infected in Normal human bronchial/tracheal epithelial cells cultured in air-liquid interface media assessed as reduction in viral yield pretreated with compound followed by viral infection for 4 hrs post washout and measured 3 days after virus removal by qRT-PCR analysis; assay type: functional, organism-based; conditions: Severe acute respiratory syndrome coronavirus 2, hCoV-19/USA-WA1/2020 Washington, Epithelial cell
[10] = Solubility of compound in PBS; assay type: physicochemical; conditions: buffer
[11] = test system: SARS-CoV-2; assay: Selectivity ratio of EC50 for antiviral activity against SARS-CoV-2 infected in Vero cells to EC50 for antiviral activity against SARS-CoV-2 infected in human Caco-2 cells; assay type: functional, Severe acute respiratory syndrome coronavirus 2
[12] = test system: SARS-CoV-2; assay: Selectivity ratio of EC50 for antiviral activity against SARS-CoV-2 infected in Vero cells to EC50 for antiviral activity against SARS-CoV-2 infected in human Calu-3 cells; assay type: functional, Severe acute respiratory syndrome coronavirus 2
[13] = test system: SARS-CoV-2; assay: Antiviral activity against SARS-CoV-2 infected in human Calu-3 cells assessed as reduction in viral yield measured after 72 hrs by qRT-PCR analysis; assay type: functional, organism-based, Severe acute respiratory syndrome coronavirus 2
[14] = test system: Caco-2; assay: Cytotoxicity against human Caco-2 cells assessed as reduction in cell viability; assay type: toxicity, cell-based; conditions: caco-2
[15] = test system: Calu-3; assay: Cytotoxicity against human Calu-3 cells assessed as reduction in cell viability; assay type: toxicity, cell-based; conditions: calu-3

Compound: CC(C)C[C@H](NC(=O)[C@H](Cc1cccc2ccccc12)NC(=O)OCc1ccccc1)C(=O)N[C@H](/C=C(\C#N)C(N)=O)C[C@@H]1CCCNC1=O
- CC50 [1]: 29 µM
- pEC50 [2]: 6.05
- EC90 [2]: 7 µM
- CC50 [3]: > 100 µM
- CC50 [4]: 29 µM
- pEC50 [5]: < 5.00
- EC90 [5]: > 10 µM
- CC50 [6]: > 100 µM

Compound: CC(C)C[C@H](NC(=O)[C@H](Cc1cccc2ccccc12)NC(=O)OCc1ccccc1)C(=O)N[C@H](C=O)CNC(=O)N1CCC1
- CC50 [1]: 43.6 µM
- pEC50 [2]: 4.74
- EC90 [2]: 84 µM
- CC50 [3]: > 100 µM
- CC50 [4]: 43.6 µM
- pEC50 [5]: < 5.00
- EC90 [5]: > 10 µM
- CC50 [6]: > 100 µM

Compound: Cc1ccsc1C(=O)N[C@@H](Cc1cccc2ccccc12)C(=O)N[C@@H](CC(C)C)C(=O)N[C@H](C=O)C[C@@H]1CCCNC1=O
- CC50 [1]: 35.1 µM
- pEC50 [2]: 6.52
- EC90 [2]: 0.8 µM
- CC50 [3]: 51.5 µM
- CC50 [4]: 16.3 µM
- pEC50 [5]: 5.66
- EC90 [5]: 4.8 µM
- CC50 [6]: 53.1 µM

Compound: CC(C)C[C@H](NC(=O)[C@H](Cc1ccc(O)cc1)NC(=O)OCc1ccccc1)C(=O)N[C@H](C=O)C[C@@H]1CCCNC1=O
- CC50 [1]: > 100 µM
- pEC50 [2]: 5.07
- EC90 [2]: 47.6 µM
- CC50 [3]: > 100 µM
- CC50 [4]: > 100 µM
- pEC50 [5]: < 5.00
- EC90 [5]: > 10 µM
- CC50 [6]: > 100 µM

Compound: CC(C)C[C@H](NC(=O)[C@H](Cc1cccc2ccccc12)NC(=O)OCc1ccccc1)C(=O)N[C@H](C#N)C[C@@H]1CCCNC1=O
- CC50 [1]: > 100 µM
- pEC50 [2]: 6.15
- EC90 [2]: 5.1 µM
- CC50 [3]: > 100 µM
- CC50 [4]: > 100 µM
- pEC50 [5]: < 5.00
- EC90 [5]: > 10 µM
- CC50 [6]: > 100 µM

Compound: Cc1cc(C(=O)N[C@@H](Cc2cccc3ccccc23)C(=O)N[C@@H](CC(C)C)C(=O)N[C@@H](C[C@@H]2CCCNC2=O)C(O)S(=O)(=O)[O-])no1.[Na+] (some centres not stated)
- CC50 [1]: 51.1 µM
- pEC50 [2]: 6.52
- CC50 [3]: 58.6 µM
- EC90 [7]: 1.7 µM
- pEC50 ([8]; Calu-3, 48 h): 6.10
- EC90 ([8]; Calu-3, time 48 hrs): 2.7 µM
- pEC50 [9]: 6.40
- EC90 [9]: 0.7 µM
- solubility [10]: 400 µg/mL
- CC50 [4]: 24.3 µM
- Ratio EC50 [11]: 15
- Ratio EC50 [12]: 3
- pEC50 ([13]; Severe acute respiratory syndrome coronavirus 2, Calu-3, 72 h): 5.92
- EC90 ([13]; Severe acute respiratory syndrome coronavirus 2, Calu-3, time 72 hrs): 5.3 µM
- CC50 [14]: > 100 µM
- pEC50 [5]: 5.35
- EC90 [5]: 9.3 µM
- CC50 [15]: > 100 µM
- CC50 [6]: > 100 µM

Compound: CC(C)C[C@H](NC(=O)[C@H](Cc1cccc2ccccc12)NC(=O)OCc1ccccc1)C(=O)N[C@H](C=O)Cn1ccnn1
- CC50 [1]: 25.3 µM
- pEC50 [2]: 4.27
- EC90 [2]: 99 µM
- CC50 [3]: 35.7 µM
- CC50 [4]: 25.3 µM
- pEC50 [5]: 5.33
- EC90 [5]: 9.5 µM
- CC50 [6]: 35.7 µM
